What all share (assay type): in vivo
Experiment [1] relates to Pseudoperonospora cubensis. Briefly: Cucumber Downy Mildew foliar spray test, inoculated one day after treatment. The conditions noted are these: applied to foliage at 200 ppm, cucumber plants, read-out: Activity against Fungal Diseases PSPECU (percent disease control). The protocol:
Fungicide activity data are the level (in percent) at which the given disease was controlled when the given compound was applied to the foliage of the plants at 200 ppm. In a few cases (noted in the table) the compound was applied to the plants at 25 ppm or 3 ppm. The plants were inoculated with the fungus one day after treatment. ***=80-100% control; **=50-79% control; *=0-49% control. […] The activity of the compounds as effective fungicides was determined by applying the compounds to plants and observing control of fungal disease. […] All plants were inoculated with spores of the fungus the day after treatment, then incubated in an environment conducive to disease development. Disease severity was evaluated 4 to 25 days (d) later, depending on the speed of disease development. The following experiments were performed in the laboratory to determine the fungicidal efficacy of the compounds of the invention. Cucumber Downy Mildew (causal agent Pseudoperonospora cubensis; Bayer code […]): Cucumber plants (variety 'Bush Champion' or 'Bush Pickle Hybrid') were grown from seed in a soil-less peat-based potting mixture (Metromix) until the first true leaf was 20-80% expanded. Each pot contained 1 seedling. These plants were sprayed until wet with the formulated test compound. On the following day, the leaves were inoculated with an aqueous suspension of downy mildew sporangia and the plants were kept in high humidity for one day to permit sporangia to germinate and infect the leaf. The plants were then incubated in a growth chamber until disease developed on untreated control plants. […] The effectiveness of the test compounds at controlling disease when sprayed on leaves was determined by assessing the severity of disease on treated plants, then converting the severity to percent control based on the level of disease on untreated, inoculated plants.

The test system of experiment [2] is Puccinia recondita tritici. Briefly: Leaf Rust of Wheat foliar spray test, inoculated one day after treatment. The settings on record: applied to foliage at 200 ppm, wheat plants, read-out: Activity against Fungal Diseases PUCCRT (percent disease control). The protocol:
(§1) Fungicide activity data are the level (in percent) at which the given disease was controlled when the given compound was applied to the foliage of the plants at 200 ppm. In a few cases (noted in the table) the compound was applied to the plants at 25 ppm or 3 ppm. The plants were inoculated with the fungus one day after treatment. ***=80-100% control; **=50-79% control; *=0-49% control. […] The activity of the compounds as effective fungicides was determined by applying the compounds to plants and observing control of fungal disease. […] All plants were inoculated with spores of the fungus the day after treatment, then incubated in an environment conducive to disease development. Disease severity was evaluated 4 to 25 days (d) later, depending on the speed of disease development. The following experiments were performed in the laboratory to determine the fungicidal efficacy of the compounds of the invention. […] Each pot contained 3-8 seedlings. These plants were sprayed until wet with the formulated test compounds. On the following day, the leaves were inoculated with an aqueous spore suspension of Puccinia recondita tritici and the plants were kept in high humidity overnight to permit spores to germinate and infect the leaf. The plants were then transferred to a greenhouse until disease developed on untreated control plants. […] The effectiveness of the test compounds at controlling disease when sprayed on leaves was determined by assessing the severity of disease on treated plants, then converting the severity to percent control based on the level of disease on untreated, inoculated plants.

The test system of experiment [3] is Pyricularia oryzae. Kind of experiment: whole plant or invertebrate. The settings on record: foliar, read-out: Activity against Fungal Diseases PYRIOR (percent disease control).
The test system of experiment [4] is Septoria tritici. Kind of experiment: Septoria Blotch of Wheat foliar spray test, inoculated one day after treatment. The conditions noted are these: Zymoseptoria tritici, wheat plants, read-out: Activity against Fungal Diseases SEPTTR (percent disease control); for pest or weed control at 200 ppm: applied to foliage at 200 ppm; for pest or weed control at 25 ppm: Tested at 25 ppm. On the procedure: as §1, with “3-10” for “3-8”, “compound.” for “compounds.”, “Septoria” for “Puccinia recondita”, “(one day in a dark dew chamber followed by two days in a lighted dew chamber)” for “overnight”

Regarding `FC(F)(F)c1ccnc(Oc2ccc(CCNc3ncnc4scnc34)cc2)c1` [Compound 7, thiazolo[5,4-d]pyrimidin-7-yl-{2-[4-(4-trifluoromethylpyridin-2-yloxy)-phenyl]-ethyl}-amine], the pest or weed control at 200 ppm in experiment [1], in experiment [2], in experiment [3] and in experiment [4] was 80 to 100% throughout.
Regarding `FC(F)(F)c1cccnc1Oc1ccc(CCNc2ncnc3scnc23)cc1` [Compound 8, thiazolo[5,4-d]pyrimidin-7-yl-{2-[4-(3-trifluoromethylpyridin-2-yloxy)-phenyl]-ethyl}-amine], the pest or weed control at 200 ppm in experiment [1], in experiment [2], in experiment [3] and in experiment [4] was 80 to 100% each time.
For the compound `Cc1cc(Oc2cc(C(F)(F)F)ccn2)ccc1OCCNc1ncnc2scnc12` [Compound 9, {2-[2-methyl-4-(4-trifluoromethylpyridin-2-yloxy)-phenoxy]-ethyl}-thiazolo[5,4-d]pyrimidin-7-ylamine], the pest or weed control at 200 ppm in experiment [1], in experiment [2], in experiment [3] and in experiment [4] was 80 to 100% in each case.
With `Cc1cc(Oc2cc(C(F)(F)F)ccn2)c(C)cc1CCNc1ncnc2scnc12` [Compound 13, {2-[2,5-dimethyl-4-(4-trifluoromethylpyridin-2-yloxy)-phenyl]-ethyl}-thiazolo[5,4-d]pyrimidin-7-ylamine], the pest or weed control at 200 ppm in experiment [1], in experiment [2], in experiment [3] and in experiment [4] was 80 to 100% in each case.
Turning to `COC(=O)c1cnc(Oc2ccc(CCNc3ncnc4scnc34)cc2)cc1C(F)(F)F` [Compound 16, 6-{4-[2-(thiazolo[5,4-d]pyrimidin-7-ylamino)-ethyl]-phenoxy}-4-trifluoromethyl-nicotinic acid methyl ester], the pest or weed control at 200 ppm was 80 to 100% in experiment [1], 80 to 100% in experiment [2], 50 to 79% in experiment [3] and 50 to 79% in experiment [4].
With `CC(Cc1ccc(Oc2cc(C(F)(F)F)ccn2)cc1)Nc1ncnc2scnc12` (stereo not drawn) [Compound 18, {1-methyl-2-[4-(4-trifluoromethylpyridin-2-yloxy)-phenyl]-ethyl}-thiazolo[5,4-d]pyrimidin-7-ylamine], the pest or weed control at 200 ppm in experiment [1], in experiment [2], in experiment [3] and in experiment [4] was 80 to 100% throughout.
As to `Cc1cc(CCNc2ncnc3scnc23)ccc1Oc1cc(C(F)(F)F)ccn1` [Compound 23, {2-[3-methyl-4-(4-trifluoromethylpyridin-2-yloxy)-phenyl]-ethyl}-thiazolo[5,4-d]pyrimidin-7-ylamine], the pest or weed control at 200 ppm in experiment [1], in experiment [2], in experiment [3] and in experiment [4] was 80 to 100% each time.
For the compound `Cc1cc(CCNc2ncnc3scnc23)ccc1Oc1ncccc1C(F)(F)F` [Compound 24, {2-[3-methyl-4-(3-trifluoromethylpyridin-2-yloxy)-phenyl]-ethyl}-thiazolo[5,4-d]pyrimidin-7-ylamine], the pest or weed control at 200 ppm in experiment [1] lay within 80 to 100%; in experiment [2] it was 80 to 100%; in experiment [3], 50 to 79%; in experiment [4], 80 to 100%.
Regarding `COC(=O)c1cnc(Oc2ccc(CCNc3ncnc4scnc34)cc2Br)cc1C(F)(F)F` [Compound 27, 6-{2-bromo-4-[2-(thiazolo[5,4-d]pyrimidin-7-ylamino)-ethyl]-phenoxy}-4-trifluoromethyl-nicotinic acid methyl ester], the pest or weed control at 200 ppm in experiment [1] lay within 80 to 100%; in experiment [2], 80 to 100%; in experiment [3] it was 80 to 100%; in experiment [4], 50 to 79%.
Turning to `COc1cc(CCNc2ncnc3scnc23)ccc1Oc1ccc(C(F)(F)F)cc1F` [Compound 30, {2-[4-(2-fluoro-4-trifluoromethylphenoxy)-3-methoxyphenyl]-ethyl}-thiazolo[5,4-d]pyrimidin-7-ylamine], the pest or weed control at 200 ppm in experiment [1], in experiment [2] and in experiment [3] was 80 to 100% in each case. Besides, the pest or weed control at 25 ppm in experiment [4] was in the range of 80 to 100%.
For the compound `COc1cc(CCNc2ncnc3scnc23)ccc1Oc1ccncc1C(F)(F)F` [Compound 31, {2-[3-methoxy-4-(3-trifluoromethylpyridin-4-yloxy)-phenyl]-ethyl}-thiazolo[5,4-d]pyrimidin-7-ylamine], the results for the pest or weed control at 200 ppm in experiment [1], in experiment [2] and in experiment [3] were 50 to 79%, 80 to 100% and 80 to 100%, respectively. The pest or weed control at 25 ppm in experiment [4] was in the range of 80 to 100%.
As to `COc1cc(CCNc2ncnc3scnc23)ccc1Oc1c(F)cnc(C(F)(F)F)c1F` [Compound 32, {2-[4-(3,5-difluoro-2-trifluoromethylpyridin-4-yloxy)-3-methoxyphenyl]-ethyl}-thiazolo[5,4-d]pyrimidin-7-ylamine], the pest or weed control at 200 ppm in experiment [1], in experiment [2] and in experiment [3] was 80 to 100% in each case. Also, the pest or weed control at 25 ppm in experiment [4] lay in the range of 80 to 100%.
For the compound `Fc1cnc(C(F)(F)F)c(F)c1Oc1ccc(CCNc2ncnc3scnc23)cc1` [Compound 33, {2-[4-(3,5-difluoro-2-trifluoromethylpyridin-4-yloxy)-phenyl]-ethyl}-thiazolo[5,4-d]pyrimidin-7-ylamine], the pest or weed control at 200 ppm in experiment [1], in experiment [2], in experiment [3] and in experiment [4] was 80 to 100% each time.
For `CC(Nc1ncnc2scnc12)c1ccc(Oc2cc(C(F)(F)F)ccn2)cc1` (stereo not drawn) [Compound 35, thiazolo[5,4-d]pyrimidin-7-yl-{1-[4-(4-trifluoromethylpyridin-2-yloxy)-phenyl]-ethyl}-amine], the pest or weed control at 200 ppm in experiment [1], in experiment [2], in experiment [3] and in experiment [4] was 80 to 100% each time.
For the compound `Fc1cnc(Oc2ccc(CCNc3ncnc4scnc34)cc2)c(F)c1C(F)(F)F` [Compound 36, {2-[4-(3,5-difluoro-4-trifluoromethylpyridin-2-yloxy)-phenyl]-ethyl}-thiazolo[5,4-d]pyrimidin-7-ylamine], the pest or weed control at 200 ppm in experiment [1], in experiment [2], in experiment [3] and in experiment [4] was 80 to 100% each time.

Values taken from patent US8921382B2, “Thiazolo[5,4-d] pyrimidines and their use as agrochemicals” (Dow AgroSciences, LLC., priority 2010, dated 2014).
